≈ marks a conversion by molar mass, not a printed value. Like-named read-outs stand apart in the source and are kept apart here.
Legend:
[1] = EE2 plasma pharmacokinetics alone and with SYM-1219 2 grams (Example 2, Part B); assay type: in vivo, human
T. vaginalis = conditions: cited from earlier work; for Cure rates in randomized clinical trials of recommended regimens: CDC 2015 Guidelines - Trichomoniasis
[2] = CDC 2015 Guidelines - Trichomoniasis; cited from earlier work
[3] = system: clinical isolates of T. vaginalis; test: Susceptibility testing, minimal lethal concentration (MLC), aerobic; assay type: cell-based, Trichomonas vaginalis
Procedure: Susceptibility testing was conducted with one hundred (100) clinical isolates of T. vaginalis.
Archived, de-identified, clinical isolates of T. vaginalis that were banked in liquid nitrogen were used for this study. The samples had been collected between July 2015 and June 2017, in accordance with institutional review board guidelines, and all patients had consented to the storage and use of their samples for subsequent testing. […] In brief, trichomonads were grown in Diamond's medium 1025 (containing trypticase soy broth, yeast extract, maltose, and calf serum) adjusted to pH 5.9 and supplemented with streptomycin at 1 g/liter and penicillin G at 100 U/ml. A hemocytometer was used to count the trichomonad population and to adjust it to a concentration of 66,666 cells/ml. Isolates were tested in microtiter plates under aerobic conditions. […] Plates were then incubated at 37° C. for 46 hours to 50 hours and read with a Zeiss Axiovert inverted microscope. The concentration of drug in the microplate wells in which no motile trichomonads were observed was reported as the MLC. […] Low-level resistance was defined as an aerobic MLC of 50 μg/ml to 100 μg/ml, moderate-level resistance as an aerobic MLC of 200 μg/ml, and high-level resistance as an aerobic MLC of >400 μg/ml. The MLCs for metronidazole and secnidazole were analyzed using the Wilcoxon signed-rank test to evaluate the differences between treatments.
Each well of a 96-well plate was filled with 150 μL of T. vaginalis suspension in Diamond's growth media (10^4 trichomonads). […] Cultures were visually assessed for survival, defined by observation of motility, through a 100× inverted microscope.

clinical = conditions: female, human, plasma, Mean (% CV); for AUC(0-t): NET AUC0-t; for AUC(0-inf): NET AUC0-∞; for Cmax: NET Cmax
[4] = Group B1 (SYM-1219 2 grams co-administered on Day 1)
[5] = Group B1: Period 2 (SYM-1219 2 grams same day) vs Period 1 (EE2/NET alone)
[6] = Group B1 Period 1: EE2/NET alone
[7] = Group B1 Period 2: EE2/NET followed by SYM-1219 2 grams on Day 1
[8] = Group B2 (EE2/NET 1 day after SYM-1219 2 grams)
[9] = Group B2: Period 2 (EE2/NET 1 day after SYM-1219 2 grams) vs Period 1 (EE2/NET alone)
[10] = Group B2 Period 1: EE2/NET alone
[11] = Group B2 Period 2: SYM-1219 2 grams on Day 1, EE2/NET on Day 2
[12] = meta-analysis of six published studies
[13] = 100 clinical T. vaginalis isolates
[14] = 100 clinical T. vaginalis isolates, aerobic, 46-50 h

## C#C[C@]1(O)CC[C@H]2[C@@H]3CCc4cc(O)ccc4[C@H]3CC[C@@]21C [EE2, ethinyl estradiol]
[1]; [4]
  Change in EE2 AUC: no change
  EE2 Cmax reduced by: 29%
[1]; [5]
  EE2 AUC0-t, Geometric LSMean % Ratio (SE), 100*Test/Reference: 94.26 (2.683) %
  EE2 AUC0-∞, Geometric LSMean % Ratio (SE), 100*Test/Reference: 105.37 (4.565) %
  EE2 Cmax, Geometric LSMean % Ratio (SE), 100*Test/Reference: 71.07 (4.951) %
[1]; [6]
  EE2 AUC0-t, Mean (% CV): 643.67 (23.85) h*pg/mL
  EE2 Cmax, Geometric Least Squares (LS) Means (SE): 77.92 (3.839) pg/mL
  EE2 Cmax, Mean (% CV): 80.63 (26.84) pg/mL
[1]; [7]
  EE2 AUC0-t, Geometric Least Squares (LS) Means (SE): 590.74 (11.892) h*pg/mL
  EE2 Cmax, Geometric Least Squares (LS) Means (SE): 55.38 (2.728) pg/mL
  EE2 Cmax, Mean (% CV): 59.88 (42.19) pg/mL
[1]; [8]
  EE2 PK alteration: not altered
[1]; [9]
  EE2 AUC0-t, Geometric LSMean % Ratio (SE), 100*Test/Reference: 99.04 (2.291) %
  EE2 AUC0-∞, Geometric LSMean % Ratio (SE), 100*Test/Reference: 93.32 (3.570) %
  EE2 Cmax, Geometric LSMean % Ratio (SE), 100*Test/Reference: 104.96 (4.034) %
[1]; [10]
  EE2 AUC0-t, Geometric Least Squares (LS) Means (SE): 649.96 (10.631) h*pg/mL
  EE2 AUC0-t, Mean (% CV): 680.48 (28.91) h*pg/mL
[1]; [11]
  EE2 AUC0-t, Geometric Least Squares (LS) Means (SE): 643.74 (10.529) h*pg/mL
  EE2 Cmax, Geometric Least Squares (LS) Means (SE): 87.16 (2.369) pg/mL

## CCS(=O)(=O)CCn1c([N+](=O)[O-])cnc1C [tinidazole]
T. vaginalis
  Cure rates in randomized clinical trials of recommended regimens: 92%-100%
[2]
  Half-life: 12.5 h

## Cc1ncc([N+](=O)[O-])n1CCO [metronidazole]
T. vaginalis
  Cure rates in randomized clinical trials of recommended regimens: 84%-98%
T. vaginalis; HIV-positive women with trichomoniasis (Kissinger 2010)
  Cure rate for single dose treatment: 83.2%
T. vaginalis; HIV-uninfected, non-pregnant women, 2018 comparison study
  Increase in treatment failures with single-dose 2-gram vs 7-day dose (500 mg twice daily): 45%
T. vaginalis; [12]
  Fewer treatment failures with 7 day-dose compared to single-dose: 46%
  Test of cure (TOC) positive rates after single-dose: 6.2% to 18.0%
[2]
  Half-life: 7.3 h
[3]; [13]
  Isolates exhibiting moderate resistance (aerobic MLC 200 μg/ml): 1%
  Prevalence of low-level resistance (aerobic MLC 50 μg/ml to 100 μg/ml): 7%
[3]; [14]
  MLC, mean (±SD) among all isolates: 13.5 ± 26.9 µg/mL (≈ 78.9 µM)
  MLC, median: 6.3 µg/mL (≈ 36.8 µM)
[3]; single clinical isolate
  MLC in the one isolate with a higher MLC for secnidazole than for metronidazole: 1.6 µg/mL

## C#C[C@]1(O)CC[C@H]2[C@@H]3CCC4=CC(=O)CC[C@@H]4[C@H]3CC[C@@]21C [NET, norethindrone]
EE2/NET administered 1 day after SYM-1219
  NET Cmax, AUC0-t or AUC0-∞ increased by: 9-16%
[4]
  NET Cmax and AUC increased: 13%
[5]
  NET AUC0-t, Geometric LSMean % Ratio (SE), 100*Test/Reference: 115.52 (5.828) %
  NET AUC0-∞, Geometric LSMean % Ratio (SE), 100*Test/Reference: 116.27 (6.032) %
  NET Cmax, Geometric LSMean % Ratio (SE), 100*Test/Reference: 113.18 (7.958) %
[6]
  NET λz, Mean: 0.07709 h⁻¹
  NET λz, Median: 0.07966 h⁻¹
[7]
  NET t1/2, Median: 9.12 h
  NET λz, Mean: 0.07886 h⁻¹
  NET λz, Median: 0.07642 h⁻¹
[8]
  Change in NET AUC: no change
  NET Cmax increased by: 16%
[9]
  NET AUC0-t, Geometric LSMean % Ratio (SE), 100*Test/Reference: 110.78 (4.104) %
  NET AUC0-∞, Geometric LSMean % Ratio (SE), 100*Test/Reference: 108.75 (4.207) %
  NET Cmax, Geometric LSMean % Ratio (SE), 100*Test/Reference: 116.46 (8.178) %
[10]
  NET AUC0-∞, Median: 47.35 ng·h/mL
  NET t1/2, Median: 9.29 h
  NET λz, Mean: 0.07369 h⁻¹
  NET λz, Median: 0.07458 h⁻¹
[11]
  NET AUC0-t, Median: 44.53 ng·h/mL
  NET Cmax, Mean (% CV): 10.69 (48.34) ng/mL
  NET Cmax, Mean (SD): 10.69 (5.169) ng/mL
  NET Tmax, Median: 1.000 h
  NET t1/2, Median: 9.19 h
  NET λz, Mean: 0.07685 h⁻¹
  NET λz, Median: 0.07539 h⁻¹
SYM-1219 administered immediately after EE2/NET
  NET Cmax, AUC0-t or AUC0-∞ increased by: 13-16%
clinical; [6]
  AUC(0-t): 49.4 ng·h/mL
  AUC(0-inf): 57.8 ng·h/mL
  Cmax: 9.18 ng/mL
clinical; [7]
  AUC(0-t): 53.5 ng·h/mL
  AUC(0-inf): 62.4 ng·h/mL
  Cmax: 10.1 ng/mL
clinical; [10]
  AUC(0-t): 61.4 ng·h/mL
  AUC(0-inf): 75 ng·h/mL
  Cmax: 9.63 ng/mL
clinical; [11]
  AUC(0-t): 61.2 ng·h/mL
  AUC(0-inf): 71.5 ng·h/mL

Source: patent publication US12280037B2, “Method and pharmaceutical composition for treating or preventing trichomoniasis and uses thereof” (EVOFEM BIOSCIENCES, INC., priority 2020, dated 2025)
